Literature values, collected in patent US8791150B2, “Pharmaceutical composition for peroral administration of diindolylmethane” (Zakrytoe Aktsionernoe Obschestvo “Veles Farma”, priority 2009, dated 2014).

Columns and labels:
[1] = tested on: normal (untransformed) keratinocytes; details: in vitro; cited from earlier work
[2] = tested on: pathological neoangiogenesis; details: injected subcutaneously, 5 mg/kg daily; cited from earlier work
[3] = tested on: cellular cervical cancer lines; details: one of the three cellular cervical cancer lines studied; cited from earlier work

| Compound | apoptotic changes in normal keratinocytes [1] | suppression of pathological neoangiogenesis [2] [%] | LD50 [3] [µM] |
| --- | --- | --- | --- |
| c1ccc2c(Cc3c[nH]c4ccccc34)c[nH]c2c1 [DIM, 3,3′-diindolylmethane] | did not induce any apoptotic changes | 74 | – |
| OCc1c[nH]c2ccccc12 [Pluronic I3C, indole-3-carbinol] | – | – | 200 |
